Our source for the EC50 values is patent US11793815B2, “Oxindoles and methods of use thereof” (ALIGOS THERAPEUTICS, INC., priority 2020, dated 2023).

The target in the assay is T1, human thyroid receptor beta ligand-binding domain (LBD) (Homo sapiens, UniProt P10828).
T1 construct: Thyroid receptor beta LBD was added to the plate at a final concentration of 1 nM; purchased Invitrogen
T1 sequence (P10828 217-461 limits assumed): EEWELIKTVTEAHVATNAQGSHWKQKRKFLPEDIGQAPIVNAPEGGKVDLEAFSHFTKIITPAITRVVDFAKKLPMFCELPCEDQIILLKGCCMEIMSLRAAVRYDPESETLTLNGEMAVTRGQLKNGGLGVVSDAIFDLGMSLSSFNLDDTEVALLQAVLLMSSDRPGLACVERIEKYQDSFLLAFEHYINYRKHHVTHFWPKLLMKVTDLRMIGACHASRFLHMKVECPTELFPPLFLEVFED
Kind of assay: THR Biochemical Assay (Assay 1): TR-FRET thyroid receptor beta coactivator assay. Particulars: GST-tagged thyroid receptor beta LBD 1 nM, fluorescein SRC2-2 coactivator peptide 200 nM, 1 hr at rt, TR-FRET ratio 520:495; read-out: Assay 1 (EC50, THR-beta agonist). The source says:
THR Biochemical Assay (Assay 1)
The TR-FRET thyroid receptor beta coactivator assay was used with slight, optimized modifications of the manufacturer's protocol (Invitrogen). The assay uses a terbium-labeled anti-GST antibody, a glutathione-S-transferase (GST) tagged human thyroid receptor, beta or alpha, ligand-binding domain (LBD), and a fluorescein labeled SRC2-2 coactivator peptide. The antibody interacts with the LBD, where the agonist also binds, resulting in increased affinity for the SRC2-2 coactivator peptide causing energy transfer […] the acceptor fluorophore and a FRET emission shift from 495 to 520 nm. The energy transfer was detected as an increase in the fluorescence emission of the fluorescein acceptor, and a decrease in the fluorescence emission of the terbium donor. The assay was performed in a 384-well black plate in a final volume of 20 μL. Serial dilution of various test agonists was performed in DMSO (1% final DMSO concentration) and added to the test plate. Thyroid receptor beta LBD was added to the plate at a final concentration of 1 nM, followed by the mixture of the fluorescein labeled SRC2-2 coactivator peptide, and the terbium-labeled anti-GST antibody at final concentrations of 200 nM and 2 nM respectively. The assay was incubated for 1 hr at rt protected from light. The TR-FRET was then measured on a Victor multilabel reader (Perkin Elmer) using an excitation wavelength of 340 nm with emission filters of 495 nm and 520 nm. The assay was quantified by expressing a ratio (520:495) of the intensities, and the resulting activation curves; EC50 values were generated using a sigmoidal dose response (variable slope) equation in GraphPad™ Prism 8.0.
On the technique in general: In TR-FRET formats the signal depends on donor and acceptor labels being close together.
`Cc1c(Oc2c(Cl)cc(-n3nc(N)c(=O)[nH]c3=O)cc2Cl)ccc2c1C1(CC1)C(=O)N2` [Compound 38, 6-amino-2-(3,5-dichloro-4-((4′-methyl-2′-oxospiro[cyclopropane-1,3′-indolin]-5′-yl)oxy)phenyl)-1,2,4-triazine-3,5(2H,4H)-dione]: the EC50 (as a rule, the midpoint of the concentration-response curve) is below 50 nM.

Consider `Cc1cc(NC(=O)c2noc(=O)[nH]2)cc(C)c1Oc1ccc2c(c1)C1(CC1)C(=O)N2` [Compound 39, N-(3,5-dimethyl-4-((2′-oxospiro[cyclopropane-1,3′-indolin]-5′-yl)oxy)phenyl)-5-oxo-4,5-dihydro-1,2,4-oxadiazole-3-carboxamide], for which the EC50 was below 50 nM.

With `O=C(Nc1cc(Cl)c(Oc2ccc3c(c2F)C2(CC2)C(=O)N3)c(Cl)c1)c1noc(=O)[nH]1` [Compound 40, N-(3,5-dichloro-4-((4′-fluoro-2′-oxospiro[cyclopropane-1,3′-indolin]-5′-yl)oxy)phenyl)-5-oxo-4,5-dihydro-1,2,4-oxadiazole-3-carboxamide], the EC50 is below 50 nM.

Take `Nc1nn(-c2cc(Cl)c(Oc3ccc4c(c3F)C3(CC3)C(=O)N4)c(Cl)c2)c(=O)[nH]c1=O` [Compound 41, 6-amino-2-(3,5-dichloro-4-((4′-fluoro-2′-oxospiro[cyclopropane-1,3′-indolin]-5′-yl)oxy)phenyl)-1,2,4-triazine-3,5(2H,4H)-dione]: the EC50 is below 50 nM.

With `Cn1nc(-c2cc(Cl)c(Oc3ccc4c(c3F)C3(CC3)C(=O)N4)c(Cl)c2)c(=O)[nH]c1=O` [Compound 42, 6-(3,5-dichloro-4-((4′-fluoro-2′-oxospiro[cyclopropane-1,3′-indolin]-5′-yl)oxy)phenyl)-2-methyl-1,2,4-triazine-3,5(2H,4H)-dione], the EC50 is below 50 nM.

With `Cn1nc(-c2cc(Cl)c(Oc3ccc4c(c3Cl)C3(CC3)C(=O)N4)c(Cl)c2)c(=O)[nH]c1=O` [Compound 43, 6-(3,5-dichloro-4-((4′-chloro-2′-oxospiro[cyclopropane-1,3′-indolin]-5′-yl)oxy)phenyl)-2-methyl-1,2,4-triazine-3,5(2H,4H)-dione], the EC50 is below 50 nM.

`O=C(Nc1cc(Cl)c(Oc2ccc3c(c2)C2(CC2)C(=O)N3)c(C(F)(F)F)c1)c1noc(=O)[nH]1` [Compound 44, N-(3-chloro-4-((2′-oxospiro[cyclopropane-1,3′-indolin]-5′-yl)oxy)-5-(trifluoromethyl)phenyl)-5-oxo-4,5-dihydro-1,2,4-oxadiazole-3-carboxamide]: the EC50 is below 50 nM.

`Nc1nn(-c2cc(Cl)c(Oc3cnc4c(c3)C3(CC3)C(=O)N4)c(Cl)c2)c(=O)[nH]c1=O` [Compound 45, 6-amino-2-(3,5-dichloro-4-((2′-oxo-1′,2′-dihydrospiro[cyclopropane-1,3′-pyrrolo[2,3-b]pyridin]-5′-yl)oxy)phenyl)-1,2,4-triazine-3,5(2H,4H)-dione]: the EC50 was in the range of 250 to 1000 nM.
